Measurements: patent US11198713B2, “Agents modulating beta-catenin functions and methods thereof” (FOG PHARMACEUTICALS, INC., priority 2017, dated 2021)
Like-named read-outs stand apart in the source and are kept apart here.

Target: T1, full-length beta-catenin (Axin site) (Homo sapiens, UniProt P35222)
T1 construct: 15 nM full-length beta-catenin, 20 nM FITC labeled peptide in buffer
T1 sequence (P35222 1-781): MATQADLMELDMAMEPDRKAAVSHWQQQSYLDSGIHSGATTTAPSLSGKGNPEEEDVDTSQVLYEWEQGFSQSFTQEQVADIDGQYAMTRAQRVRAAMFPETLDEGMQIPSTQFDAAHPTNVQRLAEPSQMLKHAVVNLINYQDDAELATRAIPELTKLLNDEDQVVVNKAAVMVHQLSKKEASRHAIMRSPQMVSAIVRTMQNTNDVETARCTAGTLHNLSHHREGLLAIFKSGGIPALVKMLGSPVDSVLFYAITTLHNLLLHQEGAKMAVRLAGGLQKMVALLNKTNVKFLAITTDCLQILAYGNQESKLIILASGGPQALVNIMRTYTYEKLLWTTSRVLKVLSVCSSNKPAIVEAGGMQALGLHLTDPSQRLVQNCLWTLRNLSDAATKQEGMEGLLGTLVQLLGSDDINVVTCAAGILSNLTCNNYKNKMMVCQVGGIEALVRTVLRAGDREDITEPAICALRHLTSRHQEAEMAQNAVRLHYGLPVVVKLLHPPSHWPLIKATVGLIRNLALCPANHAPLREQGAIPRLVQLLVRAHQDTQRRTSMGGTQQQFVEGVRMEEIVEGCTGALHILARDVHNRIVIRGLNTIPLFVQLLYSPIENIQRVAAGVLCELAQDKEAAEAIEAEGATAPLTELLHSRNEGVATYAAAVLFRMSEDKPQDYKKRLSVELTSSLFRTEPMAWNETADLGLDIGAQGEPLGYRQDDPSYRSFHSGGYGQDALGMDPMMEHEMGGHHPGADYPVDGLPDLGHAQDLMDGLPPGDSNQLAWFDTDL
Test: Competition fluorescence polarization assay (Axin site probe)
Type: binding
In short: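 Competition FP: 15 nM full-length β-catenin pre-incubated 5 min with 20 nM FITC-labelled stapled Axin-site peptide, then titrated peptide added (3-fold series from 5 μM) for 15 min in the dark. Buffer 50 mM Tris pH 8.0, 250 mM NaCl, 2% glycerol, 0.5 mM EDTA; duplicate reads.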

[1] = competition fluorescence polarization, Table 2, read-out: in vitro FP EC50
[2] = competition with FITC labeled Axin-site probe, 15 nM full-length beta-catenin, read-out: FP EC50

| EC50 [1] [nM] | EC50 [2] [nM] | Compound |
| --- | --- | --- |
| 500 to 5000 | – | CC[C@H](C)[C@@H]1NC(=O)[C@](C)(NC(=O)[C@H](CCC(N)=O)NC(=O)[C@@H]2CCCN2C(C)=O)CCCC=CCOC(=O)N(C)CCC[C@](C)(C(=O)N[C@@H](Cc2c[nH]cn2)C(=O)N[C@H](C(=O)N[C@@H](CCCNC(=N)N)C(=O)N[C@@H](CCCNC(=N)N)C(=O)N[C@H](C(=O)N[C@@H](Cc2c[nH]c3ccccc23)C(=O)N[C@@H](CCCNC(=N)N)C(N)=O)C(C)C)C(C)C)NC(=O)[C@H](CC(=O)O)NC(=O)[C@H](CC(C)C)NC1=O (single isomer, unassigned) [FP0777c, Ac-P-Q-R5-I-L-D-MI-H-V-R-R-V-W-R-NH2] |
| 100 to 500 | – | CC[C@H](C)[C@@H]1NC(=O)[C@](C)(NC(=O)[C@H](CCC(N)=O)NC(=O)[C@@H]2CCCN2C(C)=O)CCN(C)C(=O)OCC=CCCC[C@](C)(C(=O)N[C@@H](Cc2c[nH]cn2)C(=O)N[C@H](C(=O)N[C@@H](CCCNC(=N)N)C(=O)N[C@@H](CCCNC(=N)N)C(=O)N[C@H](C(=O)N[C@@H](Cc2c[nH]c3ccccc23)C(=O)N[C@@H](CCCNC(=N)N)C(N)=O)C(C)C)C(C)C)NC(=O)[C@H](CC(=O)O)NC(=O)[C@H](CC(C)C)NC1=O (single isomer, unassigned) [FP0782c, Ac-P-Q-MG-I-L-D-R5-H-V-R-R-V-W-R-NH2] |
| 500 to 5000 | – | CC[C@H](C)[C@@H]1NC(=O)[C@](C)(NC(=O)[C@H](CCC(N)=O)NC(=O)[C@@H]2CCCN2C(C)=O)CCCN(C)C(=O)OCC=CCCC[C@](C)(C(=O)N[C@@H](Cc2c[nH]cn2)C(=O)N[C@H](C(=O)N[C@@H](CCCNC(=N)N)C(=O)N[C@@H](CCCNC(=N)N)C(=O)N[C@H](C(=O)N[C@@H](Cc2c[nH]c3ccccc23)C(=O)N[C@@H](CCCNC(=N)N)C(N)=O)C(C)C)C(C)C)NC(=O)[C@H](CC(=O)O)NC(=O)[C@H](CC(C)C)NC1=O (single isomer, unassigned) [FP0783c, Ac-P-Q-MI-I-L-D-R5-H-V-R-R-V-W-R-NH2] |
| – | 580 | CC[C@H](C)[C@@H]1NC(=O)C2(NC(=O)[C@H](CCC(N)=O)NC(=O)[C@@H]3CCCN3C(C)=O)CN(CC=CCCCC[C@](C)(C(=O)N[C@@H](Cc3c[nH]cn3)C(=O)N[C@H](C(=O)N[C@@H](CCCNC(=N)N)C(=O)N[C@@H](CCCNC(=N)N)C(=O)N[C@H](C(=O)N[C@@H](Cc3c[nH]c4ccccc34)C(=O)N[C@@H](CCCNC(=N)N)C(N)=O)C(C)C)C(C)C)NC(=O)[C@H](CC(=O)O)NC(=O)[C@H](CC(C)C)NC1=O)C2 (single isomer, unassigned) [FP-0725, Ac-P-Q-Az-I-L-D-R6-H-V-R-R-V-W-R-NH2] |

Continued, compound first:

| Compound | EC50 [1] [nM] | EC50 [2] [nM] |
| --- | --- | --- |
| CC[C@H](C)[C@@H]1NC(=O)[C@](C)(NC(=O)[C@H](CCC(N)=O)NC(=O)[C@@H]2CCCN2C(C)=O)CCCC=CCOC(=O)N(C)CC[C@](C)(C(=O)N[C@@H](Cc2c[nH]cn2)C(=O)N[C@H](C(=O)N[C@@H](CCCNC(=N)N)C(=O)N[C@@H](CCCNC(=N)N)C(=O)N[C@H](C(=O)N[C@@H](Cc2c[nH]c3ccccc23)C(=O)N[C@@H](CCCNC(=N)N)C(N)=O)C(C)C)C(C)C)NC(=O)[C@H](CC(=O)O)NC(=O)[C@H](CC(C)C)NC1=O (single isomer, unassigned) [FP0776c, Ac-P-Q-R5-I-L-D-MG-H-V-R-R-V-W-R-NH2] | 500 to 5000 | – |
| CC[C@H](C)[C@@H]1NC(=O)[C@](C)(NC(=O)[C@H](CCC(N)=O)NC(=O)[C@@H]2CCCN2C(C)=O)CCCC=CCN(C)CCC[C@](C)(C(=O)N[C@@H](Cc2c[nH]cn2)C(=O)N[C@H](C(=O)N[C@@H](CCCNC(=N)N)C(=O)N[C@@H](CCCNC(=N)N)C(=O)N[C@H](C(=O)N[C@@H](Cc2c[nH]c3ccccc23)C(=O)N[C@@H](CCCNC(=N)N)C(N)=O)C(C)C)C(C)C)NC(=O)[C@H](CC(=O)O)NC(=O)[C@H](CC(C)C)NC1=O (single isomer, unassigned) [FP0777a, Ac-P-Q-R5-I-L-D-MI-H-V-R-R-V-W-R-NH2] | 500 to 5000 | – |
| CC[C@H](C)[C@@H]1NC(=O)[C@@](C)(NC(=O)[C@H](CCC(N)=O)NC(=O)[C@@H]2CCCN2C(C)=O)CN(C)C(=O)OCC=CCCC[C@@](C)(C(=O)N[C@@H](Cc2c[nH]cn2)C(=O)N[C@H](C(=O)N[C@@H](CCCNC(=N)N)C(=O)N[C@@H](CCCNC(=N)N)C(=O)N[C@H](C(=O)N[C@@H](Cc2c[nH]c3ccccc23)C(=O)N[C@@H](CCCNC(=N)N)C(N)=O)C(C)C)C(C)C)NC(=O)[C@H](CC(=O)O)NC(=O)[C@H](CC(C)C)NC1=O (single isomer, unassigned) [FP0778c, Ac-P-Q-MD-I-L-D-S5-H-V-R-R-V-W-R-NH2] | 500 to 5000 | – |
| CC[C@H](C)[C@@H]1NC(=O)[C@@](C)(NC(=O)[C@H](CCC(N)=O)NC(=O)[C@@H]2CCCN2C(C)=O)CCN(C)C(=O)OCC=CCCC[C@@](C)(C(=O)N[C@@H](Cc2c[nH]cn2)C(=O)N[C@H](C(=O)N[C@@H](CCCNC(=N)N)C(=O)N[C@@H](CCCNC(=N)N)C(=O)N[C@H](C(=O)N[C@@H](Cc2c[nH]c3ccccc23)C(=O)N[C@@H](CCCNC(=N)N)C(N)=O)C(C)C)C(C)C)NC(=O)[C@H](CC(=O)O)NC(=O)[C@H](CC(C)C)NC1=O (single isomer, unassigned) [FP0779c, Ac-P-Q-MF-I-L-D-S5-H-V-R-R-V-W-R-NH2] | 500 to 5000 | – |
| CC[C@H](C)[C@@H]1NC(=O)[C@@](C)(NC(=O)[C@H](CCC(N)=O)NC(=O)[C@@H]2CCCN2C(C)=O)CCCN(C)C(=O)OCC=CCCC[C@@](C)(C(=O)N[C@@H](Cc2c[nH]cn2)C(=O)N[C@H](C(=O)N[C@@H](CCCNC(=N)N)C(=O)N[C@@H](CCCNC(=N)N)C(=O)N[C@H](C(=O)N[C@@H](Cc2c[nH]c3ccccc23)C(=O)N[C@@H](CCCNC(=N)N)C(N)=O)C(C)C)C(C)C)NC(=O)[C@H](CC(=O)O)NC(=O)[C@H](CC(C)C)NC1=O (single isomer, unassigned) [FP0780c, Ac-P-Q-MH-I-L-D-S5-H-V-R-R-V-W-R-NH2] | 500 to 5000 | – |
| CC[C@H](C)[C@@H]1NC(=O)[C@](C)(NC(=O)[C@H](CCC(N)=O)NC(=O)[C@@H]2CCCN2C(C)=O)CCCN(C)CC=CCCC[C@](C)(C(=O)N[C@@H](Cc2c[nH]cn2)C(=O)N[C@H](C(=O)N[C@@H](CCCNC(=N)N)C(=O)N[C@@H](CCCNC(=N)N)C(=O)N[C@H](C(=O)N[C@@H](Cc2c[nH]c3ccccc23)C(=O)N[C@@H](CCCNC(=N)N)C(N)=O)C(C)C)C(C)C)NC(=O)[C@H](CC(=O)O)NC(=O)[C@H](CC(C)C)NC1=O (single isomer, unassigned) [FP0783a, Ac-P-Q-MI-I-L-D-R5-H-V-R-R-V-W-R-NH2] | 500 to 5000 | – |
| CC[C@H](C)[C@@H]1NC(=O)C2(NC(=O)[C@H](CCC(N)=O)NC(=O)[C@@H]3CCCN3C(C)=O)CN(C2)C(=O)OCC=CCC[C@](C)(C(=O)N[C@@H](Cc2c[nH]cn2)C(=O)N[C@H](C(=O)N[C@@H](CCCNC(=N)N)C(=O)N[C@@H](CCCNC(=N)N)C(=O)N[C@H](C(=O)N[C@@H](Cc2c[nH]c3ccccc23)C(=O)N[C@@H](CCCNC(=N)N)C(N)=O)C(C)C)C(C)C)NC(=O)[C@H](CC(=O)O)NC(=O)[C@H](CC(C)C)NC1=O (single isomer, unassigned) [FP-0721c, Ac-P-Q-Az-I-L-D-R4-H-V-R-R-V-W-R-NH2] | – | 1300 |
| CC[C@H](C)[C@@H]1NC(=O)C2(NC(=O)[C@H](CCC(N)=O)NC(=O)[C@@H]3CCCN3C(C)=O)CN(C2)C(=O)OCC=CCCC[C@](C)(C(=O)N[C@@H](Cc2c[nH]cn2)C(=O)N[C@H](C(=O)N[C@@H](CCCNC(=N)N)C(=O)N[C@@H](CCCNC(=N)N)C(=O)N[C@H](C(=O)N[C@@H](Cc2c[nH]c3ccccc23)C(=O)N[C@@H](CCCNC(=N)N)C(N)=O)C(C)C)C(C)C)NC(=O)[C@H](CC(=O)O)NC(=O)[C@H](CC(C)C)NC1=O (single isomer, unassigned) [FP-0723c, Ac-P-Q-Az-I-L-D-R5-H-V-R-R-V-W-R-NH2] | – | 1400 |
